Measurements taken from ChEMBL document CHEMBL1147528, “(S)-N-[1-(4-cyclopropylmethyl-3,4-dihydro-2H-benzo[1,4]oxazin-6-yl)-ethyl]-3-(2-fluoro-phenyl)-acrylamide is a potent and efficacious KCNQ2 opener which inhibits induced hyperexcitability of rat hippocampal neurons” (Bioorg Med Chem Lett, 2004).

Key:
[1] = target: Potassium voltage-gated channel subfamily KQT member 2 (Mus musculus, UniProt Q9Z351); test: Whole-cell patch-clamp on recombinant mouse KCNQ2 channels expressed in HEK 293 cells at -40 mV; type: functional, cell-based, HEK293
Potassium voltage-gated channel subfamily KQT member 2, sequence (Q9Z351 whole entry): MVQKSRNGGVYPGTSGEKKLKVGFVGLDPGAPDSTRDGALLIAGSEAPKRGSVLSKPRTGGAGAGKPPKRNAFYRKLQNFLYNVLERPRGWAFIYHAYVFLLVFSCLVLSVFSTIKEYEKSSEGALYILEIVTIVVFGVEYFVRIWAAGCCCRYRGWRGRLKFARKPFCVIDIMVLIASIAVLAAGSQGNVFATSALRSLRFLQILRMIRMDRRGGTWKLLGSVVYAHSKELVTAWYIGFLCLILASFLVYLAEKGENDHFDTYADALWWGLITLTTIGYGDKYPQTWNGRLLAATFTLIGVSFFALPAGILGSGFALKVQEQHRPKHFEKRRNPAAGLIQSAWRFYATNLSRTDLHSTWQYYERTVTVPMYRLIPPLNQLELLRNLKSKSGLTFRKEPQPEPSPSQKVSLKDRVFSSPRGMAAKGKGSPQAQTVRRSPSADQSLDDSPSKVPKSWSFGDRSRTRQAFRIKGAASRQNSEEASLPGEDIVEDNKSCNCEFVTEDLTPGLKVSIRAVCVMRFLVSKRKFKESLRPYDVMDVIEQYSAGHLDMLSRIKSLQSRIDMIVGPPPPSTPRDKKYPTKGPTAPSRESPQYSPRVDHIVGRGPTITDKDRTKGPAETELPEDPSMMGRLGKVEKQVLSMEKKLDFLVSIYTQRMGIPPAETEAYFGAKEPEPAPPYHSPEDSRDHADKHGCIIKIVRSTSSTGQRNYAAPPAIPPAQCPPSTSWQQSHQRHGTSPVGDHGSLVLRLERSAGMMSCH

[2] = target: Potassium voltage-gated channel subfamily KQT member 2 (Mus musculus) (UniProt Q9Z351); test: Efficacy for mKCNQ2 expressed in HEK293 cells relative to reference compound; type: functional, cell-based
Potassium voltage-gated channel subfamily KQT member 2 (Mus musculus), sequence (Q9Z351 whole entry): as above

SMILES	EC50 [1] [nM]	E/Eref [2]
C[C@H](NC(=O)/C=C/c1ccccc1)c1cccc(N2CCOCC2)c1	3280	1.4
C[C@H](NC(=O)/C=C/c1ccccc1F)c1ccc2c(c1)N(C)CCO2	940	1.8
CCN1CCOc2ccc([C@H](C)NC(=O)/C=C/c3ccccc3F)cc21	200	2.1
C[C@H](NC(=O)/C=C/c1ccccc1F)c1ccc2c(c1)N(CC1CC1)CCO2	60	1.83
C[C@H](NC(=O)/C=C/c1ccccc1F)c1ccc2c(c1)NCCO2	2000	1.2
CCOC(=O)Nc1ccc(NCc2ccc(F)cc2)cc1N [EZOGABINE]	1300	1.6
